For 26 compounds, IC50 results are on record in patent US8420820B2, “Pyrrolopyridinylpyrimidin-2-ylamine derivatives” (Merck Patent GmbH, priority 2008, dated 2013).

For orientation: IC50 means the point on the concentration scale where inhibition reaches its midpoint.

The target of one assay is T1, PDK1 (Homo sapiens, UniProt O15530).
T1 construct: His6 (N)
In words: Test for the inhibition of PDK1 (flashplate, 33P-ATP). Format: biochemical. The following applies: His6-PDK1 3.4 nM, 4 μM ATP, 30° C., 60 min. How it is done:
The experimental batches are carried out in a flashplate system with 384 wells/microtitration plate.
In each case, the PDK1 sample His6-PDK1(SEQ ID NO: 2)(1-50)(3.4 nM), the PDK1 substrate biotin-bA-bA-[…] (SEQ ID NO: 3) (400 nM), 4 μM ATP (with 0.2 μCi of ^33P-ATP/well) and the test substance in 50 μl of conventional experimental solution per well are incubated at 30° C. for 60 min. The test substances are employed in corresponding concentrations (if desired in a dilution series). The control is carried out without test substance. The reaction is stopped using standard methods and washed. The activity of the kinase is measured via the incorporated radioactivity in top count. In order to determine the non-specific kinase reaction (blank value), the experimental batches are carried out in the presence of 100 nM staurosporin.
The radioactivity (decompositions per minute) of the blank value (no use of test substance in the presence of staurosporin) is subtracted from all other radioactivity values. The controls (kinase activity without test substance) are set equal to 100 percent and all other radioactivity values (after subtracting the blank value) are expressed set in relation thereto (for example in % of the control).
IC50 values (50% inhibition) are determined with the aid of statistics programmes, such as, for example, RS1.

The subject of assay [1] is PDK1 kinase activity in PC3 cells (phospho-T308-PKB). Nature of the assay: Cellular testing of PDK1 kinase inhibitors in PC3 cells (Luminex, phospho-T308-PKB). Format: cell-based. The following applies: Homo sapiens, PC-3, 0.5 h, 30 min with test substance, serum-free, phospho-T308-PKB by Luminex, read-out: IC50 [PC3 P-PKB Thr308]. How it is done:
Method for the Cellular Testing of PDK1 Kinase Inhibitors in PC3 Cells.
The cellular assay for the determination of the PDK1 kinase activity is carried out as a Luminex assay in the 96-well format. PC3 cells are sown at 20,000 cells per well in 100 μl of medium (45% of […]/45% of Ham's F12/10% of FCS) and incubated on the following day for 30 min with a serial dilution of the test substance (7 concentrations) under serum-free conditions. The cells are subsequently lysed using 90 μl of lysis buffer (20 mM tris/HCl pH 8.0, 150 mM NaCl, 1% of NP40, 10% of glycerol, 1% of phosphatase inhibitor I, 1% of phosphatase inhibitor II, 0.1% of protease inhibitor cocktail III, 0.01% of benzonase) per well, and the lysates are separated off from insoluble cell constituents by means of centrifugation through a 96-well filter plate (0.65 μm). The lysates are incubated overnight at 4° C. with shaking with Luminex beads to which an anti-total PKB antibody is coupled. The detection is carried out on the following day by addition of a phospho-T308-PKB antibody and a species-specific […] secondary antibody. The detection of phospho-T308-PKB is carried out by measurement in a Luminex100 instrument by determination of 100 events per cavity in a measurement time of 60 sec. As pharmacological blank, the signals obtained from cells which have been treated with 10 μM staurosporin are subtracted from all other batches. The control value used for maximum phosphorylation of PKB on T308 are the signals from cells which have only been treated with the solvent (0.3% of DMSO). The values of the batches treated with test substance are calculated therefrom as percentage of control, and IC50 values are determined by means of RS1.

T1 sequence (O15530 51-556): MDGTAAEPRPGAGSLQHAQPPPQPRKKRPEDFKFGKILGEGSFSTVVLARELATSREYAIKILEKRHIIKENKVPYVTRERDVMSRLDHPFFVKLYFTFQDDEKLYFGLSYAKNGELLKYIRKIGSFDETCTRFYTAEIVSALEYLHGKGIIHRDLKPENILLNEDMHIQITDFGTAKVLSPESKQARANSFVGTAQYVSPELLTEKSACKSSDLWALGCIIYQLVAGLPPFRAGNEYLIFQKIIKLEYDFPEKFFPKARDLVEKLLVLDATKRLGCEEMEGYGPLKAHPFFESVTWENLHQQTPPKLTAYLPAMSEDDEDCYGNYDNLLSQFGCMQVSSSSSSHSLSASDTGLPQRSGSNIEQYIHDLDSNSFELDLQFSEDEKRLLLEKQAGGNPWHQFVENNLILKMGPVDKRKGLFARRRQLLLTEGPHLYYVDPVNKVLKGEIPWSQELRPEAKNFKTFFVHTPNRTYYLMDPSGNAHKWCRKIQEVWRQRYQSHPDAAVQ

`CCc1cc(-c2c[nH]c3ncc(-c4cnn(CCN(C)C)c4)cc23)nc(N)n1` [Compound A1, 4-{5-[1-(2-dimethylaminoethyl)-1H-pyrazol-4-yl]-1H-pyrrolo[2,3-b]pyridin-3-yl}-6-ethylpyrimidin-2-ylamine]: the values for the IC50 (against PDK1; in assay [1]) were 10 to 1000 nM and 10000 to 20000 nM, respectively.
The corresponding values for `CCc1cc(-c2c[nH]c3ncc(-c4cnn(CC5CCNC5)c4)cc23)nc(N)n1` (stereo not drawn) [Compound A9] are 10 to 1000 nM and 10000 to 20000 nM.
The corresponding values for `CCc1cc(-c2c[nH]c3ncc(-c4ccc(N5CCNCC5)nc4)cc23)nc(N)n1` [Compound A10, 4-ethyl-6-[5-(6-piperazin-1-ylpyridin-3-yl)-1H-pyrrolo[2,3-b]pyridin-3-yl]pyrimidin-2-ylamine] are 10 to 1000 nM and 1000 to 10000 nM.
The corresponding values for `CCc1cc(-c2c[nH]c3ncc(-c4cccc(C(=O)NCCN(C)C)c4)cc23)nc(N)n1` [Compound A11, 3-[3-(2-amino-6-ethylpyrimidin-4-yl)-1H-pyrrolo-[2,3-b]pyridin-5-yl]-N-(2-dimethylaminoethyl)benzamide] are 10 to 1000 nM and 10000 to 20000 nM.
With `CCc1cc(-c2c[nH]c3ncc(-c4cnn(CC(=O)N5CCN(C)CC5)c4)cc23)nc(N)n1` [Compound A29, 2-{4-[3-(2-Amino-6-ethylpyrimidin-4-yl)-1H-pyrrolo[2,3-b]pyridin-5-yl]pyrazol-1-yl}-1-(4-methylpiperazin-1-yl)ethanone], the IC50 on PDK1 fell in the range of 10 to 1000 nM; in assay [1], 10000 to 20000 nM.
The corresponding values for `CCc1cc(-c2c[nH]c3ncc(-c4cnn(CC(=O)NC5CCN(C)CC5)c4)cc23)nc(N)n1` [Compound A30, 2-{4-[3-(2-Amino-6-ethylpyrimidin-4-yl)-1H-pyrrolo[2,3-b]pyridin-5-yl]pyrazol-1-yl}-N-(1-methylpiperidin-4-yl)acetamide] are 10 to 1000 nM and 10000 to 20000 nM.
The corresponding values for `CCc1cc(-c2c[nH]c3ncc(-c4cnn(CC(=O)O)c4)cc23)nc(N)n1` [Compound A31, {4-[3-(2-Amino-6-ethylpyrimidin-4-yl)-1H-pyrrolo[2,3-b]pyridin-5-yl]pyrazol-1-yl}acetylic acid] are 10 to 1000 nM and 10000 to 20000 nM.
On PDK1, `Nc1nc(CCCCO)cc(-c2c[nH]c3ncccc23)n1` [Compound A45, 4-[2-Amino-6-(1H-pyrrolo[2,3-b]pyridin-3-yl)pyrimidin-4-yl]butan-1-ol] yielded an IC50 of 1000 to 10000 nM.
On the same count and under the same terms, with `CCc1cc(-c2c[nH]c3ncc(-c4cnn(C(C)C)c4)cc23)nc(NC)n1` [Compound A60, {4-Ethyl-6-[5-(1-isopropyl-1H-pyrazol-4-yl)-1H-pyrrolo[2,3-b]pyridin-3-yl]-pyrimidin-2-yl}methylamine] the figure was 10 to 1000 nM.
Still for that read-out and setting: with `CCc1cc(-c2c[nH]c3ncc(-c4cnn(CCN(C)C)c4)cc23)nc(NC)n1` [Compound A61, (4-{5-[1-(2-Dimethylaminoethyl)-1H-pyrazol-4-yl]-1H-pyrrolo[2,3-b]pyridin-3-yl}-6-ethylpyrimidin-2-yl)methylamine] the figure was 10 to 1000 nM.
On the same count and under the same terms, then `CCc1cc(-c2c[nH]c3ncc(-c4cn[nH]c4)cc23)nc(NC)n1` [Compound A62, {4-Ethyl-6-[5-(1H-pyrazol-4-yl)-1H-pyrrolo[2,3-b]pyridin-3-yl]pyrimidin-2-yl}-methylamine], with 10 to 1000 nM.
Take `CCc1cc(-c2c[nH]c3ncc(-c4cnn(C)c4)cc23)nc(NC)n1` [Compound A63, {4-Ethyl-6-[5-(1-methyl-1H-pyrazol-4-yl)-1H-pyrrolo[2,3-b]pyridin-3-yl]-pyrimidin-2-yl}methylamine]: on PDK1, the 50% inhibitory concentration (IC50) fell in the range of 10 to 1000 nM.
Still for that read-out and setting: then `CCc1cc(-c2c[nH]c3ncc(-c4cnn(C5CCNCC5)c4)cc23)nc(NC)n1` [Compound A64, {4-Ethyl-6-[5-(1-piperidin-4-yl-1H-pyrazol-4-yl)-1H-pyrrolo[2,3-b]pyridin-3-yl]pyrimidin-2-yl}methylamine], with 10 to 1000 nM; and `CCc1cc(-c2c[nH]c3ncc(-c4cnn(CC(=O)N5CCCCC5)c4)cc23)nc(NC)n1` [Compound A65, 2-{4-[3-(6-Ethyl-2-methylaminopyrimidin-4-yl)-1H-pyrrolo[2,3-b]pyridin-5-yl]-pyrazol-1-yl}-1-piperidin-1-ylethanone], with 10 to 1000 nM.
The same measure, in the same setting: then `CCc1cc(-c2c[nH]c3ncc(-c4cnn(CC(=O)N5CCCC5)c4)cc23)nc(NC)n1` [Compound A66, 2-{4-[3-(6-Ethyl-2-methylaminopyrimidin-4-yl)-1H-pyrrolo[2,3-b]pyridin-5-yl]-pyrazol-1-yl}-1-pyrrolidin-1-ylethanone], with 10 to 1000 nM; and `CCCCc1cc(-c2c[nH]c3ncc(-c4cnn(CCO)c4)cc23)nc(NC)n1` [Compound A67, 2-{4-[3-(6-Butyl-2-methylaminopyrimidin-4-yl)-1H-pyrrolo[2,3-b]pyridin-5-yl]-pyrazol-1-yl}ethanol], with 10 to 1000 nM.
The same measure, in the same setting: with `CCc1cc(-c2c[nH]c3ncc(-c4cnn(CCO)c4)cc23)nc(NC)n1` [Compound A68, 2-{4-[3-(6-Ethyl-2-methylaminopyrimidin-4-yl)-1H-pyrrolo[2,3-b]pyridin-5-yl]-pyrazol-1-yl}ethanol] the figure was 10 to 1000 nM.
Take `CCCCc1cc(-c2c[nH]c3ncc(-c4cnn(C5CCNCC5)c4)cc23)nc(NC)n1` [Compound A70, {4-Butyl-6-[5-(1-piperidin-4-yl-1H-pyrazol-4-yl)-1H-pyrrolo[2,3-b]pyridin-3-yl]pyrimidin-2-yl}methylamine]: the half-inhibitory concentration (IC50) against PDK1 was in the range of 10 to 1000 nM.
On the same count and under the same terms, with `CCCCc1cc(-c2c[nH]c3ncc(-c4cnn(C5CCN(C)CC5)c4)cc23)nc(NC)n1` [Compound A71, (4-Butyl-6-{5-[1-(1-methylpiperidin-4-yl)-1H-pyrazol-4-yl]-1H-pyrrolo[2,3-b]-pyridin-3-yl}pyrimidin-2-yl)methylamine] the figure was 10 to 1000 nM; with `CCc1cc(-c2c[nH]c3ncc(-c4cnn(C(C)C(=O)Nc5ccc6[nH]ccc6c5)c4)cc23)nc(NC)n1` (stereo not drawn) [Compound A72, 2-{4-[3-(6-Ethyl-2-methylaminopyrimidin-4-yl)-1H-pyrrolo[2,3-b]pyridin-5-yl]-pyrazol-1-yl}-N-(1H-indol-5-yl)propionamide], 10 to 1000 nM.
On the same count and under the same terms, then `CCc1cc(-c2c[nH]c3ncc(-c4cnn(CC(=O)N5CCCc6ccccc65)c4)cc23)nc(NC)n1` [Compound A73, 1-(3,4-Dihydro-2H-quinolin-1-yl)-2-{4-[3-(6-ethyl-2-methylaminopyrimidin-4-yl)-1H-pyrrolo[2,3-b]pyridin-5-yl]pyrazol-1-yl}ethanone], with 10 to 1000 nM; and `COc1nc(Cc2ccccc2)cc(-c2c[nH]c3ncc(-c4cnn(C(C)C)c4)cc23)n1` [Compound A74, 3-(6-Benzyl-2-methoxypyrimidin-4-yl)-5-(1-isopropyl-1H-pyrazol-4-yl)-1H-pyrrolo[2,3-b]pyridine], with 1000 to 10000 nM.
Still for that read-out and setting: then `CCc1cc(-c2c[nH]c3ncc(-c4cnn(C(C)C)c4)cc23)nc(OC)n1` [Compound A75, 3-(6-Ethyl-2-methoxypyrimidin-4-yl)-5-(1-isopropyl-1H-pyrazol-4-yl)-1H-pyrrolo[2,3-b]pyridine], with 10 to 1000 nM.
At PDK1, `Nc1nc(CCC(=O)N2CCOCC2)cc(-c2c[nH]c3ncccc23)n1` [Compound A82, 3-[2-Amino-6-(1H-pyrrolo[2,3-b]pyridin-3-yl)pyrimidin-4-yl]-1-morpholin-4-ylpropan-1-one] had a concentration for half-maximal inhibition (IC50) of 1000 to 10000 nM.
On PDK1, `CN(C)CCNC(=O)CCc1cc(-c2c[nH]c3ncccc23)nc(N)n1` [Compound A83, 3-[2-Amino-6-(1H-pyrrolo[2,3-b]pyridin-3-yl)pyrimidin-4-yl]-N-(2-dimethylaminoethyl)propionamide] returned an IC50 of 1000 to 10000 nM.
Still for that read-out and setting: with `CC(C)Cn1cc(-c2cnc3[nH]cc(-c4cc(CCCN)nc(N)n4)c3c2)cn1` [Compound A84, 4-(3-Aminopropyl)-6-[5-(1-isobutyl-1H-pyrazol-4-yl)-1H-pyrrolo[2,3-b]pyridin-3-yl]pyrimidin-2-ylamine] the figure was 10 to 1000 nM.
